Settings in all cases: at 50 nM, in duplicate
One assay concerns the target PDGFRB (Homo sapiens, UniProt P09619). Nature of the assay: Z'-Lyte biochemical kinase assay (SelectScreen), PDGFRB. The method, then:
(§1) A biochemical assay was performed in order to measure the protein kinase inhibition. The kinase binding assays were performed against different kinases using the SelectScreen Biochemical Kinase Profiling Service® platform (Thermo Fisher Scientific). For all kinases, the Z′-Lyte® biochemical kinase assay technology was used. Inhibitions were measured at 50 nM in duplicate for each compound and are reported in percentage.

For the next assay, the target named is PDGFRA (Homo sapiens, UniProt P16234). The assay can be described thus: Z'-Lyte biochemical kinase assay (SelectScreen), PDGFRA. The protocol:
as §1

The next assay addresses Kit (Homo sapiens, UniProt P10721). The assay can be described thus: Z'-Lyte biochemical kinase assay (SelectScreen), Kit. The method, then:
as §1

Another assay concerns the target CSF1R (Homo sapiens, UniProt P07333). Nature of the assay: Z'-Lyte biochemical kinase assay (SelectScreen), CSF1R. The protocol: as §1
Another assay deals with T1, FLT3 (Homo sapiens, UniProt P36888).
T1 sequence (P36888 27-993): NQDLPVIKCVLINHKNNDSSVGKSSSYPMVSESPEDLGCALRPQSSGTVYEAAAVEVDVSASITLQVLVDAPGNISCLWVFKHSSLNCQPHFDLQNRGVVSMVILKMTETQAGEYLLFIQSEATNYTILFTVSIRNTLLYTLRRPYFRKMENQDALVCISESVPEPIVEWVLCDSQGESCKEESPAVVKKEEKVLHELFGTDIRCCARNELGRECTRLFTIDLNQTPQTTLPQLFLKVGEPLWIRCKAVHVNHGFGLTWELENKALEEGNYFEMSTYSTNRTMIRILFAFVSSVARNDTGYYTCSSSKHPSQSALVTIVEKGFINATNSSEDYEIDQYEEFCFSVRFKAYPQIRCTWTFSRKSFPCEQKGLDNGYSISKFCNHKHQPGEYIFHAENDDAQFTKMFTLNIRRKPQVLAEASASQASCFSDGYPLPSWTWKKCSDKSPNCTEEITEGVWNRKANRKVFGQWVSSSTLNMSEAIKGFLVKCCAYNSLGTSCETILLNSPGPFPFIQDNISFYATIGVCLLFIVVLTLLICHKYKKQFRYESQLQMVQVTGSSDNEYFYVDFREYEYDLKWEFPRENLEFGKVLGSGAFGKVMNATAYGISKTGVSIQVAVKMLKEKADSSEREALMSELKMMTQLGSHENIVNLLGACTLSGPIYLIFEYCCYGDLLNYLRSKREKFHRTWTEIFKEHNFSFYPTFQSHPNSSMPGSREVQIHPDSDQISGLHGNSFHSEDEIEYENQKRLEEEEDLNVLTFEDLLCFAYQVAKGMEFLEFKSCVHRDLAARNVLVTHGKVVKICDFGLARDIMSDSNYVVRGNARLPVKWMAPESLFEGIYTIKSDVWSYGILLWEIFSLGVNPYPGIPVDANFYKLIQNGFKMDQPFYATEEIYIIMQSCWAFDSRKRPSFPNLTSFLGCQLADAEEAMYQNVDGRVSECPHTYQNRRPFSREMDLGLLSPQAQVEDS
The assay can be described thus: Z'-Lyte biochemical kinase assay (SelectScreen), FLT3. The method, then: as §1

Chain of PDGFRB (P09619 33-1106): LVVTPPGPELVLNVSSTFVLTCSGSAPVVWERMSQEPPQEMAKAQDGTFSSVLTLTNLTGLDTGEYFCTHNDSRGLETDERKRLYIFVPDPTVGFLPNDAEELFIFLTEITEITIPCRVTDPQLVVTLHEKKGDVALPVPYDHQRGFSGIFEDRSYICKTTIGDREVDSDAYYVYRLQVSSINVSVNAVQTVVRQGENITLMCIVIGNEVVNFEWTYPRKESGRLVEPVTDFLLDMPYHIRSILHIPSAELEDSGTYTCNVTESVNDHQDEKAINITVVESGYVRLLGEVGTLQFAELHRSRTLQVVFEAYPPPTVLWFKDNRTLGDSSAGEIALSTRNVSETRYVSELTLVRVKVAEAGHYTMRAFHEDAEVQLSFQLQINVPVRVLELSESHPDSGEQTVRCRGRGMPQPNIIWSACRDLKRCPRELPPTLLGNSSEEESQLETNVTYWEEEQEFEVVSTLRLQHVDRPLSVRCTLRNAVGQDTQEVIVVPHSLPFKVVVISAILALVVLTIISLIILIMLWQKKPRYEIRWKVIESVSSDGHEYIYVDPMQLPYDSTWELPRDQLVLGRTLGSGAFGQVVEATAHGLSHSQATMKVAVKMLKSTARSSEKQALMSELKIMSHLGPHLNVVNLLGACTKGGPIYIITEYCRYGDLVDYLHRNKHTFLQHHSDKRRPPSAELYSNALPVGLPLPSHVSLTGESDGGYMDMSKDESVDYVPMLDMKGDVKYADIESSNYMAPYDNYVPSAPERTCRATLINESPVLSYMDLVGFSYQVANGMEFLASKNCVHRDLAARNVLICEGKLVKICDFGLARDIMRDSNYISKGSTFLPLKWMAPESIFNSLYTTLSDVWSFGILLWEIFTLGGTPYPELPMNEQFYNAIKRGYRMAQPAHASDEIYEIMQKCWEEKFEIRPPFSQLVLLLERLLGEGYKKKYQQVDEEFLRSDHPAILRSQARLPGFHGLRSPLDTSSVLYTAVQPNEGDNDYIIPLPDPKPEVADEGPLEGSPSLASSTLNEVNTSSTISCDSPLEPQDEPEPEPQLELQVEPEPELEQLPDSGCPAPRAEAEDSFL
Chain of PDGFRA (P16234 24-1089): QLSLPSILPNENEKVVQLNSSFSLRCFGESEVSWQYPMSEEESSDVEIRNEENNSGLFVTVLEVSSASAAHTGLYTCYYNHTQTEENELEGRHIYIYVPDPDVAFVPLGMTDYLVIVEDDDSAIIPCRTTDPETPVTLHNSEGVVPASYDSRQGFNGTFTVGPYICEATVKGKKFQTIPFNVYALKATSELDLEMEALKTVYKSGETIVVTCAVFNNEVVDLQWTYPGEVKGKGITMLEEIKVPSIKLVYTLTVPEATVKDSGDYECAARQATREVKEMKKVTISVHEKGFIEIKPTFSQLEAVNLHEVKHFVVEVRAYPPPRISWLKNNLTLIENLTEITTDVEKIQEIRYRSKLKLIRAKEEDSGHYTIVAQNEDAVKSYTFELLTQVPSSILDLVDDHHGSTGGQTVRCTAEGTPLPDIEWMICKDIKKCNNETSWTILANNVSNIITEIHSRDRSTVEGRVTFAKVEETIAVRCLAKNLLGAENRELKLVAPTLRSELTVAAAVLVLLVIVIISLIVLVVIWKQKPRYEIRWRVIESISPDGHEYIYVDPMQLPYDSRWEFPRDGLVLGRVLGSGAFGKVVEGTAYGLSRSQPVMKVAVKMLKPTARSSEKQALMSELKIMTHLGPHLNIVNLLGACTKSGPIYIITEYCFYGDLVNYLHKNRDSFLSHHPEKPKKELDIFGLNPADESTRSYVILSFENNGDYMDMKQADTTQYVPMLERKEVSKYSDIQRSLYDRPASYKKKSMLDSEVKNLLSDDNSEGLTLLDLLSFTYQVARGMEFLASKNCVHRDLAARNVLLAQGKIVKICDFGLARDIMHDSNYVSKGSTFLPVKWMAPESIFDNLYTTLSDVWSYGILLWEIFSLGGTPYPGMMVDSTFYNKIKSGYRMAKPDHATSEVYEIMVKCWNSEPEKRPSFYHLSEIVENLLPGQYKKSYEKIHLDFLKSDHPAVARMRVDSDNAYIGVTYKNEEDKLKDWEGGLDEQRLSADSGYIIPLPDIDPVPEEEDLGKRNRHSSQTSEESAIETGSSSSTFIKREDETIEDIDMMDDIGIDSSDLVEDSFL
Chain of Kit (P10721 26-976): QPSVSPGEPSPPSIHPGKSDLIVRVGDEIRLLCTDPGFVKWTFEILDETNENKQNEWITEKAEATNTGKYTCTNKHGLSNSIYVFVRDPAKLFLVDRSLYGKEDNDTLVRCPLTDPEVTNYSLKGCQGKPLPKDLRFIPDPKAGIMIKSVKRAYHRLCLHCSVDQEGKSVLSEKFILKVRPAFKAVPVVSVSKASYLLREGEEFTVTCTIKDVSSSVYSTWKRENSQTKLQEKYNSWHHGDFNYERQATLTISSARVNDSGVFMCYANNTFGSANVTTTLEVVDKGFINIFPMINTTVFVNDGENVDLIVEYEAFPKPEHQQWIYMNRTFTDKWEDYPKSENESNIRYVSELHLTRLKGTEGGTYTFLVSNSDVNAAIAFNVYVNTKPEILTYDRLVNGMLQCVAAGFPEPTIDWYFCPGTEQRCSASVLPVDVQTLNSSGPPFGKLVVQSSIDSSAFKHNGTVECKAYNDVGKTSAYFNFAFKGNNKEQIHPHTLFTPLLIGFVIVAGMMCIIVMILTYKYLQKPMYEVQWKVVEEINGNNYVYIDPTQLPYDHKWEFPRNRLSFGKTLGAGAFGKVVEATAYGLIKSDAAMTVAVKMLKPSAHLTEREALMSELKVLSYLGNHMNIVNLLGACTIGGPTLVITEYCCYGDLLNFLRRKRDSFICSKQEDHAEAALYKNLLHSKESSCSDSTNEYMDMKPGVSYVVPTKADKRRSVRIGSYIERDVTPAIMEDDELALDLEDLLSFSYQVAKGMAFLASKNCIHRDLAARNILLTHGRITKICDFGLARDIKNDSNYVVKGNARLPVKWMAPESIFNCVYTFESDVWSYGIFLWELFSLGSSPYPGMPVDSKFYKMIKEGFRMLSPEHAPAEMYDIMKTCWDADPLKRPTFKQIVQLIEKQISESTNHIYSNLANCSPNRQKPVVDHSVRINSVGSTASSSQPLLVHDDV
Chain of CSF1R (P07333 20-972): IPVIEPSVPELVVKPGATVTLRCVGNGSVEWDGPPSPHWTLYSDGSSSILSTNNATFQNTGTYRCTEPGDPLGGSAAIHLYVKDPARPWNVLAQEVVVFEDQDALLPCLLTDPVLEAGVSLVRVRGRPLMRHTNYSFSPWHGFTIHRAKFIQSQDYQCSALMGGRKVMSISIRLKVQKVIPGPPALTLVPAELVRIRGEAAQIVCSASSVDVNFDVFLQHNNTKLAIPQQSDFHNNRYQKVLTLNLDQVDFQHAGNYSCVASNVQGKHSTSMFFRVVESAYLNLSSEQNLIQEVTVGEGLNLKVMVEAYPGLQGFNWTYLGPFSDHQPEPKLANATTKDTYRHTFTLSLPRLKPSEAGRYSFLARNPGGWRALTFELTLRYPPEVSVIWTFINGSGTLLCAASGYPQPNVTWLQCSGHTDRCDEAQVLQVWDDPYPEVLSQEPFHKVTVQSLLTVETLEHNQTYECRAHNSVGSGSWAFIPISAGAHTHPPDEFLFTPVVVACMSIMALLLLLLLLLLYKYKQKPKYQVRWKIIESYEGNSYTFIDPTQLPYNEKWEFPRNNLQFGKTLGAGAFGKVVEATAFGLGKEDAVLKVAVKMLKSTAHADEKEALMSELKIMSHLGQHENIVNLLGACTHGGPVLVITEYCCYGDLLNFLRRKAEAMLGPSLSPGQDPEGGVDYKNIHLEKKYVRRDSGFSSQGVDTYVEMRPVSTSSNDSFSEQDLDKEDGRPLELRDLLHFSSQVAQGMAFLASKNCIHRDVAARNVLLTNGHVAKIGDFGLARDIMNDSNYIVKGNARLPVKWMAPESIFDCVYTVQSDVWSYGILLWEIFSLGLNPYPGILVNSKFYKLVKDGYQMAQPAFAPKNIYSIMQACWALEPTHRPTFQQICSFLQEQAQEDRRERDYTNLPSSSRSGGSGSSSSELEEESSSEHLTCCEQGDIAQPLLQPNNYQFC

As for `COc1ccc2c(Oc3cccc(C(=O)NCc4ccncc4)c3C)ccnc2c1` [Compounds 32], the inhibition at 0.05 µM was 6% on PDGFRB; 2% against PDGFRA; 2% against Kit; 96% on CSF1R; 8% on FLT3.

As to `Cc1c(Oc2ccnc3cc(Cl)ccc23)cccc1C(=O)NCc1ccncc1` [Compounds 108], the inhibition at 0.05 µM against PDGFRB stood at 13%; on PDGFRA, 11%; at Kit it was 10%; against CSF1R it was 88%; against FLT3, 6%.

With `O=C(NCC1CCCCC1)c1cccc(Oc2ccnc3ccccc23)c1` [compound 3], the inhibition at 0.05 µM came to 27% against PDGFRB; 18% on PDGFRA; 7% on Kit; 71% at CSF1R; 6% at FLT3.

Consider `COc1ccccc1CNC(=O)c1cccc(Oc2ccnc3ccccc23)c1` [compound 7], for which the inhibition at 0.05 µM stood at 22% against PDGFRB; 16% against PDGFRA; 20% on Kit; 85% on CSF1R; 14% at FLT3.

Consider `O=C(NCc1cccc(F)c1)c1cccc(Oc2ccnc3ccccc23)c1` [compound 10], for which the inhibition at 0.05 µM against PDGFRB was determined as 24%; on PDGFRA, 17%; against Kit it was 11%; on CSF1R, 71%; against FLT3 it was 18%.

Regarding `O=C(NCc1ccc(F)cc1)c1cccc(Oc2ccnc3ccccc23)c1` [compound 16], the inhibition at 0.05 µM was found to be 24% against PDGFRB; 23% against PDGFRA; 15% against Kit; 81% against CSF1R; 7% against FLT3.

For the compound `O=C(NCc1cncc(F)c1)c1cccc(Oc2ccnc3ccccc23)c1` [compound 17], the inhibition at 0.05 µM against PDGFRB was 12%; against PDGFRA it was 15%; against Kit it was 14%; on CSF1R, 83%; against FLT3, -4%.

With `COc1cc2nccc(Oc3cccc(C(=O)N[C@H](C)c4ccccc4)c3)c2cc1OC` [compound 24], the inhibition at 0.05 µM worked out at 34% on PDGFRB; 24% against PDGFRA; 29% against Kit; 97% at CSF1R; 44% on FLT3.

`COc1cc2nccc(Oc3cccc(C(=O)NCCc4ccccc4)c3)c2cc1OC` [compound 25]: the inhibition at 0.05 µM on PDGFRB stood at 39%; at PDGFRA, 27%; against Kit, 32%; against CSF1R, 95%; against FLT3, 48%.

On to `COc1ccccc1CNC(=O)c1cccc(Oc2ccnc3cc(OC)c(OC)cc23)c1` [compound 26], for which the inhibition at 0.05 µM amounted to 50% at PDGFRB; 35% at PDGFRA; 32% at Kit; 102% on CSF1R; 47% against FLT3.

In the case of `COc1cc2nccc(Oc3cccc(C(=O)NCC4CCCCC4)c3)c2cc1OC` [compound 27], the inhibition at 0.05 µM against PDGFRB is 44%; against PDGFRA it was 23%; against Kit it was 26%; on CSF1R, 93%; against FLT3, 39%.

As for `COc1cc2nccc(Oc3cccc(C(=O)NCc4cncc(F)c4)c3)c2cc1OC` [compound 29], the inhibition at 0.05 µM at PDGFRB amounted to 28%; at PDGFRA it was 21%; against Kit it was 17%; at CSF1R it was 93%; against FLT3, 2%.

Turning to `Cc1c(Oc2ccnc3ccccc23)cccc1C(=O)NCc1ccc(C#N)cc1` [compound 30], the inhibition at 0.05 µM was 11% on PDGFRB; 8% on PDGFRA; 8% on Kit; 72% on CSF1R; 10% on FLT3.

`COc1ccc2c(Oc3cccc(C(=O)NCc4cccc(F)c4)c3C)ccnc2c1` [compound 33]: the inhibition at 0.05 µM stood at 14% on PDGFRB; 10% against PDGFRA; 4% against Kit; 78% against CSF1R; 16% against FLT3.

As for `O=C(NCc1cccnc1)c1cccc(Oc2ccnc3ccccc23)c1` [compound 74], the inhibition at 0.05 µM is 12% on PDGFRB; 7% on PDGFRA; 20% on Kit; 83% against CSF1R; 25% on FLT3.

For `O=C(NCc1ccncc1)c1cccc(Oc2ccnc3ccccc23)c1` [compound 75], the inhibition at 0.05 µM is 10% against PDGFRB; -1% at PDGFRA; 20% against Kit; 79% against CSF1R; 16% against FLT3.

In the case of `COc1cc2nccc(Oc3cccc(C(=O)NCc4ccccc4)c3)c2cc1OC` [compound 84], the inhibition at 0.05 µM at PDGFRB is 54%; at PDGFRA it was 16%; on Kit, 34%; on CSF1R it was 91%; against FLT3 it was 37%.

In the case of `COc1ccc2c(Oc3cccc(C(=O)NCc4ccccc4)c3)ccnc2c1` [compound 85], the inhibition at 0.05 µM was 28% against PDGFRB; 22% at PDGFRA; 31% at Kit; 85% at CSF1R; 26% on FLT3.

On to `COc1ccc2c(Oc3cc(F)cc(C(=O)NCc4ccccc4OC)c3)ccnc2c1` [compound 88], for which the inhibition at 0.05 µM was found to be 53% against PDGFRB; 31% on PDGFRA; 30% at Kit; 85% against CSF1R; 29% on FLT3.

With `COc1ccccc1CNC(=O)c1cc(F)cc(Oc2ccnc3cc(OC)c(OC)cc23)c1` [compound 89], the inhibition at 0.05 µM at PDGFRB was determined as 48%; against PDGFRA it was 49%; against Kit, 21%; against CSF1R, 86%; at FLT3 it was 36%.

As for `COc1cc2nccc(Oc3cc(F)cc(C(=O)N[C@H](C)C4CCCCC4)c3)c2cc1OC` [compound 90], the inhibition at 0.05 µM against PDGFRB stood at 28%; at PDGFRA, 28%; at Kit, 9%; against CSF1R, 77%; at FLT3, 26%.

For the compound `COc1ccccc1CNC(=O)c1ccc(F)c(Oc2ccnc3cc(OC)c(OC)cc23)c1` [compound 92], the inhibition at 0.05 µM against PDGFRB was 60%; on PDGFRA, 24%; against Kit it was 13%; against CSF1R it was 94%; against FLT3 it was 50%.

For `COc1cc2nccc(Oc3cc(C(=O)N[C@H](C)C4CCCCC4)ccc3F)c2cc1OC` [compound 93], the inhibition at 0.05 µM against PDGFRB is 24%; on PDGFRA, 23%; on Kit it was 2%; on CSF1R, 82%; against FLT3, 3%.

`COc1cc2nccc(Oc3cc(C(=O)NCc4cccc(F)c4)ccc3F)c2cc1OC` [compound 94]: the inhibition at 0.05 µM against PDGFRB is 45%; on PDGFRA it was 30%; against Kit, 32%; at CSF1R it was 93%; on FLT3, 27%.

Turning to `COc1ccc2c(Oc3cc(C(=O)NCc4ccncc4)ccc3F)ccnc2c1` [compound 98], the inhibition at 0.05 µM against PDGFRB was 23%; at PDGFRA, 6%; against Kit it was 5%; against CSF1R, 79%; against FLT3, 6%.

Turning to `COc1ccccc1CNC(=O)c1ccc(F)c(Oc2ccnc3ccccc23)c1` [compound 99], the inhibition at 0.05 µM at PDGFRB stood at 20%; on PDGFRA, 17%; against Kit, 0%; at CSF1R it was 75%; on FLT3, 26%.

By inhibition is commonly meant the drop in the measured response relative to a control, in per cent.
